# Measurements taken from patent publication US20240382461A1, “PHARMACEUTICAL COMPOSITION AND METHOD FOR PREVENTION AND TREATMENT OF HEARING LOSS” (PHARMAZZ, INC., priority 2023, published 2024).
# “Also recorded” adds a separate entry of the source. Numbered stars: 1 amine (or outer) side, 2 acyl side, 3 side chain; on linkers, the order of the positions; unused ones are H or OH. Ends that are not written are not given here. Suc = O=C(CCC(=O)[*:2])[*:1]
# Tests used:
# ETB receptors [1] = assay: Ki of sovateltide for ETB receptors (literature); assay type: binding; conditions: ratio of Ki values
# [2] = system: noise-induced hearing loss; assay: Noise-induced hearing loss in mice, intra-tympanic injection, auditory brainstem response (ABR); assay type: in vivo, mouse; conditions: after noise exposure
# Description: (§1) The study aimed to determine whether Sovateltide (IRL-1620, PMZ-1620); an endothelin-B receptor agonist has otoprotective efficacy and that Sovateltide can ameliorate noise- or aminoglycoside-induced hearing loss in a mouse model system. Animals received either unilateral intra-tympanic Sovateltide at one of two dose concentrations or vehicle control injection. The study conducted unilateral auditory brainstem response (ABR) hearing tests at baseline and again at least 14 days after noise or aminoglycoside exposure as the primary measurement. A gross anatomical examination of treated middle ears was also conducted at necropsy.
# (§2) FIG. 4 describes the study design where male and female mice were divided into seven groups, each with ten mice. Groups 1-3 were treated with 112-decibel noise to induce cochlear trauma, whereas groups 4-6 were treated with kanamycin+frusomide to induce aminoglycoside-induced cochlear trauma, and group 7 was kept as the control. In addition, Sovateltide in two different doses was administered in groups 1, 2, 4, and 5, while the vehicle, phosphate-buffered saline, was administered in groups 3, 6, and 7. The auditory brainstem response (ABR) test was performed at baseline and day 14 after noise or aminoglycoside exposure.
# [Male & female C57Bl/6 mice used in this study were obtained from Charles River Labs. All study animals (n=69) underwent anesthesia via 87.5 mg/kg (Ketamine)/12.5 mg/kg (Xylazine) IP injection and baseline unilateral left ear ABR testing at 8, 16, and 32 kHz.
# Study animals in Groups 1-6 (n=59) underwent cochlear trauma, either via noise (112 dB SPL, 8-16 kHz band, 2-hr duration) exposure while awake, with the goal of producing a moderate chronic hearing loss in all animals or a single injection of subcutaneous kanamycin and intraperitoneal furosemide on Day 0. The noise treatment typically produced moderate hearing losses in the range of 20-50 dB and scattered losses of outer hair cells but little, if any, loss of inner hair cells. […]
# [3] = system: aminoglycoside-induced hearing loss; assay: Kanamycin/furosemide (aminoglycoside)-induced hearing loss in mice, intra-tympanic injection, ABR; assay type: in vivo, mouse; conditions: after kanamycin/furosemide (K/F) exposure; 5 and 15 ug/kg intra-tympanic; 8, 16 and 32 kHz
# Description: as §1, §2
# [Male & female C57Bl/6 mice used in this study were obtained from Charles River Labs. […]
# [4] = system: adult mouse cochlear cells; assay: Cultured adult mouse cochlear cells, JC 1 dye mitochondrial membrane potential, confocal imaging; assay type: cell-based; conditions: 1 ng/ml for 7 days
# Experimental: Inner ears comprising cochlear neuroepithelium from adult mice were dissected after anesthetizing with urethane 1.5 g/kg body weight and euthanizing with cervical dislocation. Inner ears were placed in cold saline, and the cochlea was dissected under the dissection microscope. The isolated cochlea was placed in a cold saline solution and chopped finely in a sterile condition inside a culture hood. Minced tissues were transferred to a 15 ml falcon tube and centrifuged at 1000 RPM for 2 min. The supernatant was discarded, and the pellet was submersed in 1× Trypsin EDTA solution (Cat No. R-001-100, GIBCO, MA) and triturated using a 1 ml pipette and cut-tip. The triturated tissue was incubated at 37° C. for 20 min. After 20 min, the digested tissues were vortexed gently and checked for proper digestion of the tissues. The digestion step was repeated by adding the same volume of 1× trypsin EDTA solution and incubating for 10 minutes. After a satisfactory level of digestion, the tissue solution was filtered with a sieve of pore size 40 μm to isolate cell suspension and remove undigested tissues. The cell suspension was collected in a 15 ml falcon tube, and 1 ml of serum-containing cell culture media was added and mixed properly to stop further digestion. The cochlear cell solution was centrifuged at 2000 RPM for 3 min at RT. The cell pellet was resuspended in 8 ml of 10% fetal bovine serum containing culture media and plated in 60 mm tissue culture-treated plastic plates (Alkali Scientific Inc. Fort Lauderdale, FL). The Neurobasal culture media supplemented with B-27 (Gibco, Waltham, MA) was used for culturing cochlear cells. […]
# Sovateltide treatment—The cultured mouse cochlear cells were treated with 1 ng/ml sovateltide for 7 days in 2 different conditions—1) Serum-free media and 2) Serum containing media. […] Fluorescence confocal microscopy imaging was done on live cells. […]
# JC-1 is a novel cationic carbocyanine dye that accumulates in mitochondria. The dye exists as a monomer at low concentrations and yields green fluorescence, similar to fluorescein. […]
# ETA receptors = target: T1, ETA receptors (Sus scrofa, UniProt Q29010); conditions: cited from earlier work
# T1 sequence (Q29010 21-427): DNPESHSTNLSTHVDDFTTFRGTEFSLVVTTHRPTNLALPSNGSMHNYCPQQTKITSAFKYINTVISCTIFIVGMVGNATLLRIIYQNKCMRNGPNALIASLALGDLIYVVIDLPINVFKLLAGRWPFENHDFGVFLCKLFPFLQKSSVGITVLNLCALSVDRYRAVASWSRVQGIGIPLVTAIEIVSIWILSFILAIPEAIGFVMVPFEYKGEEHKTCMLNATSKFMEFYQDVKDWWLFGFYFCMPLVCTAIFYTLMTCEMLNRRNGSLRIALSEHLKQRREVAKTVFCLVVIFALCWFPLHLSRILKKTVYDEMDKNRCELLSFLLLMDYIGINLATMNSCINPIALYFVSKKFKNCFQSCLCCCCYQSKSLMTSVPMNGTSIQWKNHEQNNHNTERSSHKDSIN
# ETB receptors [5] = conditions: cited from earlier work
# [6] = system: ETB and vascular endothelial growth factor (VEGF) in the cerebrovasculature; conditions: administration on post-natal day 21; rat brain; cited from earlier work
substance,measurement,setting,value
"synthetic analog of ET-1, ETB receptor agonist; Suc-Asp-Glu-Glu-Ala-Val-Tyr-Phe-Ala-His-Leu-Asp-Ile-Ile-Trp; CAS #142569-99-1 (Suc-DEEAVYFAHLDIIW) [Sovateltide, N-Succinyl-[Glu9, Ala11,15] endothelin 1]",selectivity for ETB over ETA receptors,ETB receptors [1],"~120,000 times"
same,ABR threshold shift at 8 kHz versus vehicle,"[2]; 5 ug/kg intra-tympanic, p=0.2513",trend of lower threshold shift
same,ABR threshold shift at 8 kHz versus vehicle,"[2]; 15 ug/kg intra-tympanic, p=0.0834",trend of lower threshold shift; also recorded: nearly significant effect
same,ABR threshold shift from baseline to Day 14 versus vehicle,"[2]; 5 and 15 ug/kg intra-tympanic, 8, 16 and 32 kHz",not significantly different; also recorded: did not produce statistically reliable differences
same,ABR threshold shift from baseline to Day 14 versus vehicle,[3],not significantly different; also recorded: did not produce statistically reliable differences; also recorded: did not have any discernible impact
same,mitochondrial protection (JC 1 mitochondrial membrane potential) versus saline control,[4]; serum containing media,reduction in compromised mitochondrial protection
same,mitochondrial protection (JC 1 mitochondrial membrane potential) versus saline control,[4]; serum-free media,more mitochondrial protection than control
same,mitochondrial protection (JC 1 mitochondrial membrane potential) versus saline control,"[4]; serum-free media, listed as sovateltide",notable improvement in mitochondrial protection and improved cellular viability
same,Ki,ETA receptors,1900 nM
same,Ki,ETB receptors [5],0.016 nM
same,ETB and VEGF expression in the cerebrovasculature,[6],significant increase
